From patent publication US11623919B2, “Heterocyclic P2X7 antagonists” (AXXAM S.P.A., priority 2017, dated 2023)

Key:
Test in all cases: Screen Quest Fluo-8 No Wash Calcium Assay (Bz-ATP evoked Ca2+ influx, FLIPR)
Assay type in all cases: cell-based
P2X7 receptor [1] = molecular target: T1, P2X7 receptor (Homo sapiens, UniProt Q99572); parameters: hP2X7 (IC50; nM); other: hP2X7; HEK-293 cells stably transfected with P2X7 receptor, Bz-ATP at EC80, Fluo-8 NW; potency; conditions: hP2X7; HEK-293 cells stably transfected with P2X7 receptor, Bz-ATP at EC80, Fluo-8 NW; potency ranges A-D
T1 sequence (Q99572 1-595): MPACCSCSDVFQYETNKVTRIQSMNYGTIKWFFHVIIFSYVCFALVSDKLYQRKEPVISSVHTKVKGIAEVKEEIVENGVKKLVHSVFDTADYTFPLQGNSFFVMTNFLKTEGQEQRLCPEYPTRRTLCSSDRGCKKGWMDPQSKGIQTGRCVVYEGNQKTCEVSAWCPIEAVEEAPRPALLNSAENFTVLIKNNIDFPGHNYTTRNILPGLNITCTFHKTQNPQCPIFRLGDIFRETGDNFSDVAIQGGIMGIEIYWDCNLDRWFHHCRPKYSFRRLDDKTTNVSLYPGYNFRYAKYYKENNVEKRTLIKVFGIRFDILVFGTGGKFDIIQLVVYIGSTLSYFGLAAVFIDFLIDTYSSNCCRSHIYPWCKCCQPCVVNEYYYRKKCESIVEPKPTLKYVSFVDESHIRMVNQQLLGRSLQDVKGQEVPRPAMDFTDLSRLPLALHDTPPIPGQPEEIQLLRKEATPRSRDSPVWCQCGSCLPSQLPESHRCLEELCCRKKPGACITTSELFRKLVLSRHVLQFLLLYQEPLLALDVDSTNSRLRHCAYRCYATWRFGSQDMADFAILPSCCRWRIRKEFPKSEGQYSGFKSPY
Description: (§1) Extracellular binding of Bz-ATP to P2X7 receptor opens the channel and allows Ca2+ influx into the cells. […] Once inside the cell, the lipophilic blocking groups of Fluo-8 are cleaved by non-specific cell esterases, resulting in a negatively-charged fluorescent dye that stays inside cells. Its fluorescence increases upon binding to calcium.
(§2) HEK-293 cells stably transfected with P2X7 receptor were seeded overnight in growth medium at 10,000 to 20,000 cell/well in 384-well plate. 24 hours later, the medium was removed and the cells were pre-loaded at RT for 1 hour with 20 μL/w of Fluo-8 NW. Then 10 μL/w of tests compounds and reference antagonist A438079 at 3×-concentration were injected with the […] and the kinetic response over a period of five minutes was monitored. A second injection of 15 μL/w of 3× reference activator (Bz-ATP at EC80) was performed with the […] and the signal of the emitted fluorescence was recorded for additional three minutes. All the experiment was carried out in a Low Divalent Cation Assay Buffer (0.3 mM Ca^2+ and 0 mM Mg^2+). The effect of the test compounds was measured as percent inhibition vs the reference antagonist and IC50 values were calculated accordingly.

P2X7 receptor [2] = molecular target: T2, P2X7 receptor (Mus musculus, UniProt Q9Z1M0); conditions: mP2X7; HEK-293 cells stably transfected with P2X7 receptor, Bz-ATP at EC80, Fluo-8 NW; potency ranges A-D
T2 construct: mP2X7 (IC50; nM); other: mP2X7; HEK-293 cells stably transfected with P2X7 receptor, Bz-ATP at EC80, Fluo-8 NW; potency
T2 sequence (Q9Z1M0 1-595): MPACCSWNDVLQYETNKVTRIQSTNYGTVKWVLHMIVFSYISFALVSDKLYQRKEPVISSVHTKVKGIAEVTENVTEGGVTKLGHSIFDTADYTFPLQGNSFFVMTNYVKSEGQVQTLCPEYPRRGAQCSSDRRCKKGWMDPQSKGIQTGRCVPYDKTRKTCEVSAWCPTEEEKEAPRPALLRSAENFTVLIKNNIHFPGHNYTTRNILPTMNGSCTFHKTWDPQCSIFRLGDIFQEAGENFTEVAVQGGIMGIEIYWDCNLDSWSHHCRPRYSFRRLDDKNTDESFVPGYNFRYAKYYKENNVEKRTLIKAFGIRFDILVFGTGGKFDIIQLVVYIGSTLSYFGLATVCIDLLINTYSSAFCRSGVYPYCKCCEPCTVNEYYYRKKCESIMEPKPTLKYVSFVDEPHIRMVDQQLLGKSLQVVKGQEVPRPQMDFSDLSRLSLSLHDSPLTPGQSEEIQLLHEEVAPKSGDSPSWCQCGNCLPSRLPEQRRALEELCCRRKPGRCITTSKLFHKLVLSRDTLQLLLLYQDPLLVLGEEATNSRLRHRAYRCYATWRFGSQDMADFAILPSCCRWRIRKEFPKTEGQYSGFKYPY
Description: as §1, §2

P2X7 receptor [3] = molecular target: T3, P2X7 receptor (Rattus norvegicus, UniProt Q64663); conditions: rP2X7; HEK-293 cells stably transfected with P2X7 receptor, Bz-ATP at EC80, Fluo-8 NW; potency ranges A-D
T3 construct: rP2X7 (IC50; nM); other: rP2X7; HEK-293 cells stably transfected with P2X7 receptor, Bz-ATP at EC80, Fluo-8 NW; potency
T3 sequence (Q64663 1-595): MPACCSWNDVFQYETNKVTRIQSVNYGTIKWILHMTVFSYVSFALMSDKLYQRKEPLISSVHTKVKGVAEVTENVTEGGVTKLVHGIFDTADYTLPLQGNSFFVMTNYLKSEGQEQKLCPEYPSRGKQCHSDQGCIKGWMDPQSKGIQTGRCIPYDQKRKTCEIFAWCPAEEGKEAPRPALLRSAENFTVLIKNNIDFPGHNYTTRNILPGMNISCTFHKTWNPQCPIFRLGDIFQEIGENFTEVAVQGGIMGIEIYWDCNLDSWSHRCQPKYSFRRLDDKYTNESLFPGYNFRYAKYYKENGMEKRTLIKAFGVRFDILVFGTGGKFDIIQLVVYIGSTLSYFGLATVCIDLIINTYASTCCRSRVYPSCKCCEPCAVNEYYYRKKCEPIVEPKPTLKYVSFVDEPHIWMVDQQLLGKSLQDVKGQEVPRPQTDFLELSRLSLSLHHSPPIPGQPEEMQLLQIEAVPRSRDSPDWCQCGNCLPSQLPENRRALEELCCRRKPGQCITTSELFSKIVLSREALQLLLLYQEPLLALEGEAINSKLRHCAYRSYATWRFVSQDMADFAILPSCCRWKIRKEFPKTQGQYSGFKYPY
Description: as §1, §2

| IC50 (P2X7 receptor [1]) [nM] | IC50 (P2X7 receptor [2]) [nM] | IC50 (P2X7 receptor [3]) [nM] | SMILES |
| --- | --- | --- | --- |
| < 200 | 200 to 1000 | < 200 | O=c1onc(Cc2c(F)cccc2Cl)n1CC1CCC(F)(F)C1 (single isomer, unassigned) [Example 148, 3-(2-chloro-6-fluorobenzyl)-4-[(3,3-difluorocyclopentyl)methyl]-1,2,4-oxadiazol-5(4H)-one] |
| 1000 to 10000 | > 10000 | > 10000 | COc1ccc(Cn2c(Cc3ccc(F)cc3)noc2=O)c(OC)c1 [Example 2, 4-[(2,4-dimethoxyphenyl)methyl]-3-[(4-fluorophenyl)methyl]-4,5-dihydro-1,2,4-oxadiazol-5-one] |
| > 10000 | > 10000 | > 10000 | COc1ccc(Cn2c(Cc3ccc(F)cc3)noc2=O)cc1 [Example 3, 3-[(4-fluorophenyl)methyl]-4-[(4-methoxyphenyl)methyl]-4,5-dihydro-1,2,4-oxadiazol-5-one] |
| > 10000 | > 10000 | > 10000 | COc1cc(Cn2c(Cc3ccc(F)cc3)noc2=O)cc(OC)c1 [Example 4, 4-[(3,5-dimethoxyphenyl)methyl]-3-[(4-fluorophenyl)methyl]-4,5-dihydro-1,2,4-oxadiazol-5-one] |
| 1000 to 10000 | > 10000 | > 10000 | O=c1onc(Cc2ccc(F)cc2)n1Cc1cc(F)ccc1Br [Example 5, 4-[(2-bromo-5-fluorophenyl)methyl]-3-[(4-fluorophenyl)methyl]-4,5-dihydro-1,2,4-oxadiazol-5-one] |
| 1000 to 10000 | 1000 to 10000 | 1000 to 10000 | O=c1onc(Cc2ccccc2)n1Cc1c(F)cccc1Cl [Example 6, 3-benzyl-4-[(2-chloro-6-fluorophenyl)methyl]-4,5-dihydro-1,2,4-oxadiazol-5-one] |
| 1000 to 10000 | 1000 to 10000 | > 10000 | COc1cccc(Cc2noc(=O)n2Cc2c(F)cccc2Cl)c1 [Example 7, 4-[(2-chloro-6-fluorophenyl)methyl]-3-[(3-methoxyphenyl)methyl]-4,5-dihydro-1,2,4-oxadiazol-5-one] |
| 1000 to 10000 | > 10000 | > 10000 | Cc1ncsc1Cn1c(Cc2ccc(F)cc2)noc1=O [Example 8, 3-[(4-fluorophenyl)methyl]-4-[(4-methyl-1,3-thiazol-5-yl)methyl]-4,5-dihydro-1,2,4-oxadiazol-5-one] |
| 200 to 1000 | > 10000 | 1000 to 10000 | O=c1onc(Cc2ccc(F)cc2)n1Cc1ccc(Cl)cc1Cl [Example 9, 4-[(2,4-dichlorophenyl)methyl]-3-[(4-fluorophenyl)methyl]-4,5-dihydro-1,2,4-oxadiazol-5-one] |
| 200 to 1000 | > 10000 | 1000 to 10000 | CC(c1ccccc1)n1c(Cc2ccc(F)cc2)noc1=O (stereo not drawn) [Example 10, 3-[(4-fluorophenyl)methyl]-4-(1-phenylethyl)-4,5-dihydro-1,2,4-oxadiazol-5-one] |
| 1000 to 10000 | 1000 to 10000 | 1000 to 10000 | CC(c1ccc(F)cc1)n1c(Cc2ccc(F)cc2)noc1=O (stereo not drawn) [Example 11, 4-[1-(4-fluorophenyl)ethyl]-3-[(4-fluorophenyl)methyl]-4,5-dihydro-1,2,4-oxadiazol-5-one] |
| 1000 to 10000 | 200 to 1000 | 200 to 1000 | O=c1onc(Cc2ccc(F)cc2)n1CC1CCCCC1 [Example 12, 4-(cyclohexylmethyl)-3-[(4-fluorophenyl)methyl]-4,5-dihydro-1,2,4-oxadiazol-5-one] |
| 1000 to 10000 | 1000 to 10000 | 1000 to 10000 | O=c1onc(Cc2cccc(Cl)c2Cl)n1Cc1c(F)cccc1Cl [Example 13, 4-[(2-chloro-6-fluorophenyl)methyl]-3-[(2,3-dichlorophenyl)methyl]-4,5-dihydro-1,2,4-oxadiazol-5-one] |
| 200 to 1000 | 1000 to 10000 | 1000 to 10000 | O=c1onc(Cc2ccc(F)cc2Cl)n1Cc1c(F)cccc1Cl [Example 14, 3-[(2-chloro-4-fluorophenyl)methyl]-4-[(2-chloro-6-fluorophenyl)methyl]-4,5-dihydro-1,2,4-oxadiazol-5-one] |
| 1000 to 10000 | 1000 to 10000 | 1000 to 10000 | O=c1onc(Cc2ccc(F)cc2F)n1Cc1c(F)cccc1Cl [Example 15, 4-[(2-chloro-6-fluorophenyl)methyl]-3-[(2,4-difluorophenyl)methyl]-4,5-dihydro-1,2,4-oxadiazol-5-one] |
| 1000 to 10000 | > 10000 | 1000 to 10000 | O=c1onc(Cc2cccc(C(F)(F)F)c2Cl)n1Cc1c(F)cccc1Cl [Example 16, 3-{[2-chloro-3-(trifluoromethyl)phenyl]methyl}-4-[(2-chloro-6-fluorophenyl)methyl]-4,5-dihydro-1,2,4-oxadiazol-5-one] |
| 1000 to 10000 | 1000 to 10000 | 1000 to 10000 | O=c1onc(Cc2ccc(Cl)cc2Cl)n1Cc1c(F)cccc1Cl [Example 17, 4-[(2-chloro-6-fluorophenyl)methyl]-3-[(2,4-dichlorophenyl)methyl]-4,5-dihydro-1,2,4-oxadiazol-5-one] |
| 1000 to 10000 | 1000 to 10000 | 1000 to 10000 | O=c1onc(Cc2c(F)cccc2Cl)n1Cc1c(F)cccc1Cl [Example 18, bis[(2-chloro-6-fluorophenyl)methyl]-4,5-dihydro-1,2,4-oxadiazol-5-one] |
| 1000 to 10000 | > 10000 | 1000 to 10000 | O=c1onc(Cc2ccccc2F)n1Cc1c(F)cccc1Cl [Example 19, 4-[(2-chloro-6-fluorophenyl)methyl]-3-[(2-fluorophenyl)methyl]-4,5-dihydro-1,2,4-oxadiazol-5-one] |
| 1000 to 10000 | 1000 to 10000 | 1000 to 10000 | O=c1onc(Cc2ccccc2Cl)n1Cc1c(F)cccc1Cl [Example 20, 4-[(2-chloro-6-fluorophenyl)methyl]-3-[(2-chlorophenyl)methyl]-4,5-dihydro-1,2,4-oxadiazol-5-one] |
